Experimental data as given in patent US20050054702A1, “Method of controlling allergens” (Lonza Inc., priority 2003, published 2005).

Target: T1, Der p 1 allergen (Dermatophagoides pteronyssinus, UniProt P08176)
T1 sequence (P08176 99-320): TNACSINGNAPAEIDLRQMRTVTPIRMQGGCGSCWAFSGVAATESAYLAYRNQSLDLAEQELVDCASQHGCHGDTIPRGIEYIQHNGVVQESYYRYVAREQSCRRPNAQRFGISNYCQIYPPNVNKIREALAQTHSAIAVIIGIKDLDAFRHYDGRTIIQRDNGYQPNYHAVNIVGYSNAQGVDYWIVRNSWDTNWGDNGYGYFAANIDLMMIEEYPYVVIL
Assay: ELISA method for Der p 1 Allergen (level of allergen recovered after exposure to active)
Format: biochemical
Conditions: 10 min exposure to Ag, 62.5 ng/ml Ag in plate
Procedure: Several samples were tested using a standard Enzyme Linked Immunosorbent Assay, (ELISA). The ELISA method for Der p 1 Allergen was utilized. Der p 1 allergen is a standardized allergen. The ELISA method provides quantitative results correlating to the level of allergen recovered in the test.
In the ELISA method for Der p 1 Allergen, the coating antibody is Anti-Der p1 mAb 5H8, supplied as a HPLC purified stock solution at 2 mg/ml in phosphate buffered saline. The coating antibody was diluted in coating buffer (12 μl in 12 ml). 100 μl of the diluted coating antibody was dispensed in each well. The plate was held overnight at 4° C. Then the coating antibody was dumped from the plate and the plate was blotted dry. The well was washed 3 times with PBS-T and blotted dry. Next, 100 μl per well of blocking buffer (BSA PBS-T) was added and incubated for 30 minutes at room temperature. A standard curve (doubling dilutions between 250-0.5 ng/ml) was prepared. The experimental samples were prepared. “Controls” are actives exposed to the plate before addition of Ag. The exposure time was 1 hour. The Ag level used in the plate was 62.5 ng/ml as is for the Ag level in the active. “Samples” are Actives exposed to Ag before addition to the plate. Exposure time was 10 minutes before incubation in the plate for 1 hour. Actives were used in 1:1 ratio with 125 ng/ml Ag (yield 62.5 ng/ml Ag in test plate).
The plate was then washed, filled with standards, blanks, controls and samples and incubated for 1 hour. The detecting antibody was prepared. Next, the plate was washed and the detecting antibody was added to each well. The conjugate was prepared. The plate was washed and the conjugate was added. Just before washing the conjugate from the plate, H2O2 was added to the substrate solution. The plate was washed and the substrate was added. The plate was read when the absorbance of 250 ng/ml antigen standard (at 405 nm) reached 2.0-2.4.
The active levels in the table are listed in ppm and are diluted in half by antigen during testing.

[1] = diluent water, active 15,000 ppm (diluted in half by antigen during testing)
[2] = diluent water, active 10,000 ppm (diluted in half by antigen during testing)

`CCCCCCCCCCCCN(CCCN)CCCN` [N,N-bis(3-aminopropyl) dodecylamine] was tested, and the “% Reduction” value [1] was 99% and the “% Reduction” value (diluent water, active 50,000 ppm (diluted in half by antigen during testing)) was 100%.

`O=C1O[C@H]([C@@H](O)CO)C(O)=C1O` [ascorbic acid] was tested, and the “% Reduction” value [2] was 91%.

With `O=C(O)CC(O)(CC(=O)O)C(=O)O` [citric acid] the “% Reduction” value (diluent water, active 5,000 ppm (diluted in half by antigen during testing)) was 100%.

With `CC(=O)C1C(=O)C=C(C)OC1=O` (stereo not drawn) [dehydroacetic acid] the “% Reduction” value (diluent ethoxylated alcohol, active 2,500 ppm (diluted in half by antigen during testing)) was 100%.

In the case of `O=C1O[C@H]([C@H](O)CO)C(O)=C1O` [erythorbic acid], the “% Reduction” value [2] is reported as 96%.

In the case of `CC(O)C(=O)O` (stereo not drawn) [lactic acid], the “% Reduction” value (diluent water, active 3,500 ppm (diluted in half by antigen during testing)) is reported as 95%.

`O=C([O-])[O-].[Na+].[Na+]` [sodium carbonate] was tested, and the “% Reduction” value (diluent water, active 2,500 ppm (diluted in half by antigen during testing)) was 100%.

With `O=C([O-])CN(CCN(CC(=O)[O-])CC(=O)[O-])CC(=O)[O-].[Na+].[Na+].[Na+].[Na+]` [tetrasodium ethylene diamine tetraacetate] the “% Reduction” value [1] was 91%.
